Test results: US20060275744A1, “Modified human embryonic stem cells and methods of use to treat neuron-associated disorders” (THE TRUSTEES OF COLUMBIA UNIVERSITY IN THE CITY OF NEW YORK, priority 2004, published 2006)

Experiments:
[1] = tested on: DJ-1 deficient dopamine neurons; assay: 6-OHDA exposure of ES-derived dopamine neuron cultures, dopamine uptake assay; format: cell-based, murine; conditions: cultures at 9 DIV, 72 hours exposure
Text: FIG. 14. DJ-1 Deficient ES Cultures Display Reduced Dopamine Neuron Production. (A) The SDIA coculture method. ES cells are cocultured with mouse stromal cells (MS5) in the absence of serum and LIF for 18 days in vitro (DIV). (B) Dopamine neuron production was quantified at 18 DIV by [^3H] dopamine uptake assay. DJ-1 deficient ES cultures were defective relative to heterozygous control cultures. (C-D) Neuron production was quantified by immunohistochemical analysis as a percent of Tuj1-positive colonies that express tyrosine hydroxylase (TH) or GAB A. Quantification of TH and GABA immunostaining was performed on all colonies in each of three independent wells. Colonies were scored as positive if any immunostained cells were present. […] (F) Kinetic analysis of dopamine neuron differentiation in DJ-1 deficient cultures (clone 32, solid square) and heterozygous controls (open circle) as quantified by dopamine uptake assay. […] Dopamine neurons were quantified by dopamine uptake assay. Data represent the means±SEM and were analyzed by ANOVA followed by Fisher's post-hoc test. *, p≦0.05.
To investigate the role of DJ-1 in the oxidative stress response in vivo, DJ-1-deficient homozygous mutant (‘knockout’) cells and DJ-1 heterozygote (‘control’) ES cell clones were analyzed for cell viability in the context of increasing concentrations of H2O2. […]

[2] = tested on: DJ-1 deficient ES cells; assay: Toxin exposure of DJ-1 deficient versus heterozygous ES cells (MTT, Annexin V/PI FACS, PARP, DHR, protein carbonyls); format: cell-based, murine; conditions: for sensitivity of DJ-1 deficient cells to toxin relative to heterozygous cells (cell viability, MTT): 15 hours exposure
Protocol: We generated cells deficient in DJ-1. cDNA for DJ-1 was PCR amplified from human liver cDNA (Clontech) and cloned into the expression vectors pET-28a (Novagen) or pcDNA3.1 (Invitrogen) using standard techniques. Flag-DJ-1 and all described mutants were generated by PCR-mediated mutagenesis. For protein carbonyl quantization (Bian et al. 2003), cells were plated (1.4×10^5 cells per well), grown for 24 hours, and then treated with 10 mM H2O2 as indicated. Cleared lysate ([…]) from each time point was added to 2 M HCl ([…]) with or without 10 mM DNPH and incubated for 1 h at 24° C. with shaking. Proteins were then TCA precipitated and resuspended in […] 6M Guanidinium Chloride. Absorbance was measured at 360 nm, and DNP-conjugated samples were normalized for protein concentration with the underivitized control samples. Undifferentiated ES cells were cultured using standard techniques (Abeliovich et al. 2000). SDIA differentiation of ES cultures was performed as described (Kawasaki et al. 2000) except that ES cells were plated at a density of 500 cells/cm^2 and cocultured with the MS5 mouse stromal cell line (Barberi et al. 2003). Transfections were performed using Lipofectamine 2000 (Life Technologies) for 18-36 hours as per the manufacturer's instructions (Staropoli et al. 2003). Primary cultures and infections were performed as described (Staropoli et al. 2003). A murine embryonic stem (ES) cell clone, F063A04, that harbors a retroviral insertion at the DJ-1 locus was obtained through the German Gene Trap Consortium (http://tikus.gsf.de) (Floss and Wurst 2002). The pT1ATGβgeo gene trap vector is present between exons 6 and 7 of the murine DJ-1 gene, as determined by cDNA sequencing of trapped transcripts and genomic analysis (FIG. 12A). This integration is predicted to disrupt the normal splicing of DJ-1, leading to the generation of a truncated protein that lacks the carboxy-terminal domain required for dimerization and stability. Of note, a mutation that encodes a similarly truncated protein (at the human DJ-1 exon 7 splice acceptor) has been described in a patient with early-onset PD (Hague et al. 2003).
To investigate the role of DJ-1 in the oxidative stress response in vivo, DJ-1-deficient homozygous mutant (‘knockout’) cells and DJ-1 heterozygote (‘control’) ES cell clones were analyzed for cell viability in the context of increasing concentrations of H2O2. ES cells plated in 96-well format (2.3×10^4 cells/well) were treated for 15 hours with H2O2 in ES media deficient in b-mercaptoethanol (Abeliovich et al. 2000). Cell viability (as a percent of untreated control) was determined by MTT assay in triplicate (Fezoui et al. 2000). Annexin V/Propidium Iodide (Molecular probes) staining was performed per the manufacturer's instructions. For dihydrorhodamine-123 staining (DHR, Molecular probes) (Walrand et al. 2003), cells were preincubated for 30 min with DHR ([…]), washed with PBS, then treated with H2O2 in ES media deficient in b-mercaptoethanol for 15 min at 37° C. The FACS analysis was performed using a FACSTAR sorter (Becton Dickinson). Dopamine uptake assays were performed essentially as described in Farrer et al. 1998. Reported values represent specific uptake from which non-specific uptake, determined in the presence of mazindol, was subtracted, and normalized for protein content (BCA kit, Pierce).
Heterozygous cells were used as controls because the ‘knockout’ subclones were derived from these. Cell viability was initially determined by MTT assay in triplicate (Fezoui et al. 2000). […] The increase in AV-positive cells implicated an apoptotic mechanism of cell death (FIG. 12F).
We quantified the accumulation of ROS in response to H2O2 treatment in mutant and heterozygous control cells using the ROS-sensitive fluorescent indicator dye dihydrorhodamine-123 (DHR) and FACS analysis. […]

[3] = tested on: DY1 ES cells; assay: Candidate soluble factors in EB or SDIA differentiation of DY1 ES cells; format: cell-based, mouse; conditions: for eYFP fluorescence or DAT immunoreactivity: factors added at stages 4-5 of differentiation
Protocol: FIG. 11. Effect of different soluble factors on the differentiation of DY1 into dopamine neurons with the EB method. (A) eYFP fluorescence or (B) DAT immunoreactivity was quantified by fluorescent confocal microscopy, see text for details. Data represent the mean±SEM. All results were analyzed by ANOVA. The level of significance is indicated where * p≦0.05 and ** p≦0.005.
We used marked ES-derived ‘late’ dopamine neurons to analyze candidate soluble and cell-associated factors in the differentiation process. […] Briefly, DY1 ES cells were differentiated using EB or SDIA and candidate factors were added to the standard differentiation protocol at stages 4-5 of differentiation (Lee et al., 2000).
We have tested additional candidate factors that are implicated in the differentiation of dopamine neurons and other CNS neuron classes. For instance, the Notch pathway plays an inhibitory role in early neuronal fate determination in uncommitted proliferative cells including neuronal stem cells (Bixby et al., 2002), as well as inhibitory roles in later events such as neurite outgrowth (Berezovska et al., 1999) in hippocampal cells. […] Another multifunctional factor in the early and late determination of neurons is neuregulin, which inhibits neurogenesis early but subsequently plays a role promoting synapse formation at certain CNS and PNS synapses (Buonanno and Fischbach, 2001). Neuregulin1-β1 appears to have increased the propensity of ES cultures to differentiate into DAT-positive cells.

[4] = tested on: MM13 cells; assay: GDNF and BDNF treatment of virally transduced MM13 cells, real-time rtPCR; format: cell-based, murine; conditions: 10 ng/ml during EB stage 4
Protocol: FIG. 23. PitX3 and Nurr1 coordinately regulate extrinsic factor signaling pathways in EB-differentiated ES cultures. […] (B) PitX3 and Nurr1 co-overexpression expands cells that are sensitive to BDNF and GDNF treatment as quantified by rtPCR for the late marker DAT but not the early marker TH. […] Virally transduced MM13 cells were treated with GDNF and BDNF (both 10 ng/ml, from R&D system) during EB stage 4; real-time rtPCR levels are presented as a percentage of the value obtained double (Nurr1 and PitX3) transduction after normalization with β-actin.

[5] = molecular target: Nurr1 + PitX3 (Homo sapiens, UniProt P43354;O75364 P43354:1-598,O75364:1-302); assay: EMSA; cooperative binding of Nurr1 and PitX3; conditions: tags: reticulocyte lysate; also nuclear extracts of EB-differentiated ES cultures; annealed oligonucleotides with overhangs
Protocol: Electrophoretic mobility shift assays (EMSA) were performed using an EMSA kit (Novagen) as per the manufacturer's instructions with annealed oligonucleotides for wild-type human DAT promoter sequences (5′-GTCTACTGGATAAGAGCCCGAGGCCGAGGCTGAGACCG-3′ (SEQ ID NO:14) and 5′-CTCAGCCTCGGCCTCGGGCTCTTATCCAGTAGACAGGGT-3′ (SEQ ID NO:15)) or mutant human DAT promoter sequences (5′-GTCTACTGGATGGGAGCCCGATTCCGAGGCTGAGACCG-3′ (SEQ ID NO:16) and 5′-CTCAGCCTCGGAATCGGGCTCCCATCCAGTAGACAGGGT-3′ (SEQ ID NO:17)).

In the case of `NCCc1cc(O)c(O)cc1O` [6-OHDA, 6-hydroxydopamine], the “sensitivity of DJ-1 deficient dopamine neurons to oxidative stress (dopamine uptake assay)” value [1] is reported as “increased sensitivity”.

With `OO` [H2O2, hydrogen peroxide] the “accumulation of protein carbonyls” value [2] was “normal”, the protein carbonyl accumulation [2] was “robustly increased” and the “initial ROS accumulation (DHR, FACS)” value ([2]; 15 minutes after stimulation, DJ-1 deficient versus heterozygous cells) was “unaltered”. For the same molecule, the “sensitivity of DJ-1 deficient cells to toxin relative to heterozygous cells (cell viability, MTT)” value [2] was “significantly greater toxicity in DJ-1 deficient cells”, the “cleavage of Poly(ADP-ribose)polymerase-1 (PARP)” value ([2]; knockout cells) was “potentiated cleavage” and the “cell death, Annexin V and propidium iodide FACS” value ([2]; knockout relative to heterozygous cells) was “increased cell death of knockout cells”.

With `[Cl][Cu][Cl]` [copper, CuCl2] the “sensitivity of DJ-1 deficient cells to toxin relative to heterozygous cells (cell viability, MTT)” value [2] was “sensitized”.

With `C[C@@H]1C[C@@H]([C@H](O)CC2CC(=O)NC(=O)C2)C(=O)[C@@H](C)C1` [cycloheximide] the “sensitivity of DJ-1 deficient cells to toxin relative to heterozygous cells (cell viability, MTT)” value [2] was “did not observe altered sensitivity”.

For `CC(=O)N[C@@H](CSC(=O)[C@]1([C@@H](O)C(C)C)NC(=O)[C@H](C)[C@@H]1O)C(=O)O` [lactacystin], the “sensitivity of DJ-1 deficient cells to toxin relative to heterozygous cells (cell viability, MTT)” value [2] was “sensitized”.

For `CN[C@@H]1C[C@H]2O[C@@](C)([C@@H]1OC)n1c3ccccc3c3c4c(c5c6ccccc6n2c5c31)C(=O)NC4` [staurosporine], the “sensitivity of DJ-1 deficient cells to toxin relative to heterozygous cells (cell viability, MTT)” value [2] was “did not observe altered sensitivity”.

For “Jagged: soluble receptor Jagged (R&D Systems) protein used to inhibit Notch signaling”, the “terminally differentiated dopamine neurons” value ([3]; inhibiting Notch signaling with soluble protein) was “significant increase”.

With Sonic Hedgehog the “eYFP fluorescence or DAT immunoreactivity” value [3] was “significant increase”.

tunicamycin was tested, and the “sensitivity of DJ-1 deficient cells to toxin relative to heterozygous cells (cell viability, MTT)” value [2] was “did not observe altered sensitivity”.

B1: GDNF: glial cell-line-derived neurotrophic factor, from R&D system (protein, UniProt P39905 78-211, looked up)
Glial cell line-derived …: SPDKQMAVLPRRERNRQAAAANPENSRGKGRRGQRGKNRGCVLTAIHLNVTDLGLGYETKEELIFRYCSGSCDAAETTYDKILKNLSRNRRLVSDKVGQACCRPIAFDDDLSFLDDNLVYHILRKHSAKRCGCI
In the case of B1, the “expression of Nurr1 and PitX3” value [4] is reported as “fails to induce”.

B2: human DAT promoter wild-type EMSA oligo (dsDNA)
DNA 1: GTCTACTGGATAAGAGCCCGAGGCCGAGGCTGAGACCG
DNA 2: CTCAGCCTCGGCCTCGGGCTCTTATCCAGTAGACAGGGT
B2: binds [5].

B3: FGF-8: fibroblast growth factor-8, candidate soluble factor added to ES differentiation (protein, UniProt P55075 23-233, looked up)
Fibroblast growth factor 8: QEGPGRGPALGRELASLFRAGREPQGVSQQHVREQSLVTDQLSRRLIRTYQLYSRTSGKHVQVLANKRINAMAEDGDPFAKLIVETDTFGSRVRVRGAETGLYICMNKKGKLIAKSNGKGKDCVFTEIVLENNYTALQNAKYEGWYMAFTRKGRPRKGSKTRQHQREVHFMKRLPRGHHTTEQSLRFEFLNYPPFTRSLRGSQRTWAPEPR
With B3 the “eYFP fluorescence or DAT immunoreactivity” value [3] was “significant increase”.

B4: BDNF: brain-derived neurotrophic factor, from R&D system (protein, UniProt P23560 19-247, looked up)
Neurotrophic factor BDNF …: APMKEANIRGQGGLAYPGVRTHGTLESVNGPKAGSRGLTSLADTFEHVIEELLDEDQKVRPNEENNKDADLYTSRVMLSSQVPLEPPLLFLLEEYKNYLDAANMSMRVRRHSDPARRGELSVCDSISEWVTAADKKTAVDMSGGTVTVLEKVPVSKGQLKQYFYETKCNPMGYTKEGCRGIDKRHWNSQCRTTQSYVRALTMDSKKRIGWRFIRIDTSCVCTLTIKRGR
For B4, the “expression of Nurr1 and PitX3” value [4] was “fails to induce”.
